Results published in article PMC8391922, “The Combined Effect of Branching and Elongation on the Bioactivity Profile of Phytocannabinoids. Part I: Thermo-TRPs” (Biomedicines, 2021).
Where two headings read alike, the source gives them in different places.

Columns and labels:
Assay type in all cases: cell-based
[1] = biological target: T1, rat TRPM8 (Rattus norvegicus, UniProt Q8R455); experiment: TRPM8 antagonism of icilin-induced intracellular Ca2+ elevation (Fluo-4) in transfected HEK-293 cells; conditions: compound added 5 min before agonist icilin 0.25 μM
T1 construct: expressed in transfected cells; host or cells: HEK-293
T1 sequence (Q8R455 whole entry): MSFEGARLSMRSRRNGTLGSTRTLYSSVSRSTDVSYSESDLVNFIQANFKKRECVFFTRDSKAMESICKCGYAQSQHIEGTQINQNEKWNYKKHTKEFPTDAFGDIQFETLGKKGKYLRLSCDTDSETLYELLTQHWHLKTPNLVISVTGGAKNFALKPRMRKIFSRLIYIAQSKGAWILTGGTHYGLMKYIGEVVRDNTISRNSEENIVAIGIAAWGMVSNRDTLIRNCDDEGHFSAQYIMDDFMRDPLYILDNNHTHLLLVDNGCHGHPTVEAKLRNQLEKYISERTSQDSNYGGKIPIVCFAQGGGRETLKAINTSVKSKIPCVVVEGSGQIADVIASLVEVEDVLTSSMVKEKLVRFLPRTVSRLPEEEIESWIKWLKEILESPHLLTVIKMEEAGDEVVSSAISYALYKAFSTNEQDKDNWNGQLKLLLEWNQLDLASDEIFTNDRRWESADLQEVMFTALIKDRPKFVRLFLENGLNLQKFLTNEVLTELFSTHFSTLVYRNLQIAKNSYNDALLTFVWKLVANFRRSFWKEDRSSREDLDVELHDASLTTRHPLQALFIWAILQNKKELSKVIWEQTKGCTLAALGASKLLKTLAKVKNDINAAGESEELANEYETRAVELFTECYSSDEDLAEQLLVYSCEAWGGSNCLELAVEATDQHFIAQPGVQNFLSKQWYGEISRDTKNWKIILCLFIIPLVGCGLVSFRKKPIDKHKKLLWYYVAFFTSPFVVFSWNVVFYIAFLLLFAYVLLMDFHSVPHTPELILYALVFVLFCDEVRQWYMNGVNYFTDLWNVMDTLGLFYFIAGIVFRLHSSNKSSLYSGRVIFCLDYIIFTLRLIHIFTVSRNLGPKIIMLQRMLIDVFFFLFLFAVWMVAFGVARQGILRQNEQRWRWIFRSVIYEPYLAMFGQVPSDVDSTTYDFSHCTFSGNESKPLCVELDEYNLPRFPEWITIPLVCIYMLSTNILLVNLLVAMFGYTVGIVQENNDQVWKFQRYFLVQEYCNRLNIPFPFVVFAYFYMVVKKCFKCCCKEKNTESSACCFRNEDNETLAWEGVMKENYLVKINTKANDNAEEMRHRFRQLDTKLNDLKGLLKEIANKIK
Method: (§1) Assays of rat TRPA1, TRPV2, TRPV3, TRPV4, and TRPM8 or human TRPV1 mediated elevation of intracellular Ca ^2+ in transfected HEK-293 cells were performed with a continuous monitoring of [Ca ^2+]i during the experiments. […] Cell fluorescence before and after the addition of various concentrations of test compounds was measured, normalizing the effects against the response to ionomycin (IM, 4 μM). The values of the effect on [Ca^2+]i in HEK-293 cells not transfected were used as baseline and subtracted from the values obtained from transfected cells. For TRPA1, agonist efficacy was expressed as a percentage of the effect on [Ca ^2+]i observed with 100 μM allylisothiocyanate. […] In the TRPV3 assay, TRPV3-expressing HEK293 cells were first sensitized with the structurally unrelated agonist 2-aminoethoxydiphenyl borate (100 μM). Antagonist/desensitizing behavior is evaluated against the agonist of the TRP analyzed by adding the compounds directly in the quartz cuvette 5 min before stimulation of cells with the agonist. […] Dose-response curve fitting (sigmoidal dose-response variable slope) and parameter estimation were performed with Graph-Pad Prism8 (GraphPad Software Inc., San Diego, CA, USA). All determinations were performed at least in triplicate.

[2] = biological target: T2, rat TRPV3 (Rattus norvegicus, UniProt Q4QYD9); experiment: TRPV3-mediated elevation of intracellular Ca2+ (Fluo-4) in transfected HEK-293 cells; conditions: for IC50: antagonist/desensitizing, compound added 5 min before agonist thymol 100 μM; for TRPV3 Efficacy (% IM 4 μM): percentage of the response to ionomycin 4 μM, cells sensitized with 2-aminoethoxydiphenyl borate 100 μM; for EC50: half-maximal increase in [Ca2+]i, HEK-293, read-out: TRPV3 Potency EC50
T2 construct: expressed in transfected cells; host or cells: HEK-293
T2 sequence (Q4QYD9 1-791): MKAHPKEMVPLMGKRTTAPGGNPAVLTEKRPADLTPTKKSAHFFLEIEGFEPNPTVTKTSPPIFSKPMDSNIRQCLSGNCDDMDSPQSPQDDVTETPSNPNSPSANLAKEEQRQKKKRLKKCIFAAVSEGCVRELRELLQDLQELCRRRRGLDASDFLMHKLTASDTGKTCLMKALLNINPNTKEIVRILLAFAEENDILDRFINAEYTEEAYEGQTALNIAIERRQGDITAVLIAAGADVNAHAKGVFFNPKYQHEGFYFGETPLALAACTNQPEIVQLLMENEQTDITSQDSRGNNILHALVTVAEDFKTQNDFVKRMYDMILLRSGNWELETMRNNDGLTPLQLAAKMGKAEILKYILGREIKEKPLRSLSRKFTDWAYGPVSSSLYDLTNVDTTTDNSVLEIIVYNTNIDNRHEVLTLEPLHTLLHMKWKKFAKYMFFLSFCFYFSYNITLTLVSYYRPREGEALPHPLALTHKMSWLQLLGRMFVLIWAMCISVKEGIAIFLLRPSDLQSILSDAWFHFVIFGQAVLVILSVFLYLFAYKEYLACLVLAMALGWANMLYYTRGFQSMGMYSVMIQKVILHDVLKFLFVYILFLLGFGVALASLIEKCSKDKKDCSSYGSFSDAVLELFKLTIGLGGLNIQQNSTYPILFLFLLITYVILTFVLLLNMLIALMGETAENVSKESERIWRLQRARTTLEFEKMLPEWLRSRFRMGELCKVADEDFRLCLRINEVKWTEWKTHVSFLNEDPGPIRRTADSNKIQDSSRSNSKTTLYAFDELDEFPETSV
Method: Effects of compounds on intracellular Ca^2+ concentration ([Ca^2+]i) were determined using Fluo-4, a selective intracellular fluorescent probe for Ca ^2+. Assays of rat TRPA1, TRPV2, TRPV3, TRPV4, and TRPM8 or human TRPV1 mediated elevation of intracellular Ca ^2+ in transfected HEK-293 cells were performed with a continuous monitoring of [Ca ^2+]i during the experiments. Briefly, human embryonic kidney (HEK-293) cells, stably transfected with rat TRPA1, TRPV2, TRPV3, TRPV4, and TRPM8 or human TRPV1 (selected by geneticin 600 μg mL ^−1) or not transfected, were cultured in EMEM+ 2 mM glutamine + 1% nonessential amino acids +10% FBS and maintained at 37 °C with 5% CO2. TRP-HEK-293 cells express stably high levels of TRP transcripts, while these transcripts were virtually absent in wild-type HEK-293 cells as checked by real-time PCR. On the day of the experiment, the cells were loaded for 1 h in the dark at room temperature with Fluo-4 AM (4 μM in DMSO containin 0.02% Pluronic F-127). The cells were rinsed, resuspended in Tyrode’s solution (145 mM NaCl, 2.5 mM KCl, 1.5 mM CaCl2, 1.2 mM MgCl2, 10 mM D-glucose, and 10 mM HEPES, pH 7.4), and transferred to a quartz cuvette of a spectrofluorimeter (PerkinElmer LS50B; λEX = 488 nm, λEM = 516 nm) equipped with a PTP-1 fluorescence Peltier system (PerkinElmer Life and Analytical Sciences, Waltham, MA, USA) under continuous stirring. Cell fluorescence before and after the addition of various concentrations of test compounds was measured, normalizing the effects against the response to ionomycin (IM, 4 μM). The values of the effect on [Ca^2+]i in HEK-293 cells not transfected were used as baseline and subtracted from the values obtained from transfected cells. For TRPA1, agonist efficacy was expressed as a percentage of the effect on [Ca ^2+]i observed with 100 μM allylisothiocyanate. The potency of the compounds (EC50 values) is determined as the concentration required to produce half-maximal increases in [Ca ^2+]i. In the TRPV3 assay, TRPV3-expressing HEK293 cells were first sensitized with the structurally unrelated agonist 2-aminoethoxydiphenyl borate (100 μM). Antagonist/desensitizing behavior is evaluated against the agonist of the TRP analyzed by adding the compounds directly in the quartz cuvette 5 min before stimulation of cells with the agonist. Allylisothiocyanate (100 μM) was used for TRPA1, capsaicin (0.1 μM) for TRPV1, cannabidiol (2 μM) for TRPV2, thymol (100 μM) for TRPV3, GSK1016790A (10 nM) for TRPV4, and icilin (0.25 μM) for TRPM8. The IC50 value was expressed as the concentration exerting a half-maximal inhibition of agonist effect, taking as 100% the effect on [Ca^2+]i exerted by the agonist alone. Dose-response curve fitting (sigmoidal dose-response variable slope) and parameter estimation were performed with Graph-Pad Prism8 (GraphPad Software Inc., San Diego, CA, USA). All determinations were performed at least in triplicate.

[3] = biological target: T3, rat TRPV4 (Rattus norvegicus, UniProt Q9ERZ8); experiment: TRPV4-mediated elevation of intracellular Ca2+ (Fluo-4) in transfected HEK-293 cells; conditions: for TRPV4 Efficacy (% IM 4 μM): percentage of the response to ionomycin 4 μM
T3 construct: expressed in transfected cells; host or cells: HEK-293
T3 sequence (Q9ERZ8 whole entry): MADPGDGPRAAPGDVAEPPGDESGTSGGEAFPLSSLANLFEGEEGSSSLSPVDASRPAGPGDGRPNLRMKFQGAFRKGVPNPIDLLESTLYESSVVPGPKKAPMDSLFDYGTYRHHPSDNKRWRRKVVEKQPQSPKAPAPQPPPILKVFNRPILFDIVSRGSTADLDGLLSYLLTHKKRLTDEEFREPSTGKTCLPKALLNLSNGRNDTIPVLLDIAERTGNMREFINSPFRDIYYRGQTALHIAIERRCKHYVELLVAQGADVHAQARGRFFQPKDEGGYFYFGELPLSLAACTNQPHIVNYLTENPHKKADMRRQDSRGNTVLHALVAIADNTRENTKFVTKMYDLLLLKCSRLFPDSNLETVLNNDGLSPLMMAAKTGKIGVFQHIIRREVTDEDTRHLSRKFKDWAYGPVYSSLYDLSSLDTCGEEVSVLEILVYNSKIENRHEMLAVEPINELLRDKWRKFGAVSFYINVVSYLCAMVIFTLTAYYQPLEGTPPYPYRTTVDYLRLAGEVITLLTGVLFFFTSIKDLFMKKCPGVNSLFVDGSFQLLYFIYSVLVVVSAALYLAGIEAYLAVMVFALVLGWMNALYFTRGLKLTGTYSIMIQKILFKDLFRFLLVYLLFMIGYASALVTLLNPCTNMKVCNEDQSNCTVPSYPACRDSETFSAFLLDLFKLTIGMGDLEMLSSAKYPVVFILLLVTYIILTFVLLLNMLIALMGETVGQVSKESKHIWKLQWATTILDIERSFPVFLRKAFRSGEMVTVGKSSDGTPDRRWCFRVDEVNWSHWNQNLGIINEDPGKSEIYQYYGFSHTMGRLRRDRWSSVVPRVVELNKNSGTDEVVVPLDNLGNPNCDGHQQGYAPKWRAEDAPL
Method: as §1

[4] = antagonist, read-out: IC50 TRPM8
[5] = antagonist/desensitizing, compound added 5 min before agonist GSK1016790A 10 nM, read-out: IC50 TRPV4

CCCCCCCc1cc(O)c2c(c1)OC(C)(CCC=C(C)C)C=C2 (stereo not drawn) [8c, Depentyl-5-n-heptylcannabichromene]
IC50 [1, 4]: > 100 µM
IC50 [2]: > 100 µM
TRPV3 Efficacy (% IM 4 μM) [2]: <10%
IC50 [3, 5]: > 100 µM
TRPV4 Efficacy (% IM 4 μM) ([3]; HEK-293): <10%

C=C(C)[C@@H]1CCC(C)=C[C@H]1c1c(O)cc(C(C)(C)CCCCCC)cc1O [1b, Depentyl-α,α-dimethylheptyl-cannabidiol]
IC50 [1, 4]: 13.4 ± 2.1 µM
IC50 [2]: 32.6 ± 5.1 µM
EC50 [2]: 11 ± 1.1 µM
TRPV3 Efficacy (% IM 4 μM) [2]: 15.8 ± 0.4%
IC50 [3, 5]: > 100 µM
TRPV4 Efficacy (% IM 4 μM) ([3]; HEK-293): 34.0 ± 1.3%

CCCCC(C)(C)c1cc(O)c2c(c1)OC(C)(CCC=C(C)C)C=C2 (stereo not drawn) [8d, Depentyl-5-α,α-dimethylpentylcannabichromene]
IC50 [1, 4]: 23.6 ± 7.4 µM
IC50 [2]: > 100 µM
TRPV3 Efficacy (% IM 4 μM) [2]: <10%
IC50 [3, 5]: > 100 µM
TRPV4 Efficacy (% IM 4 μM) ([3]; HEK-293): <10%

CCCCCCC(C)(C)c1cc(O)c2c(c1)OC(C)(CCC=C(C)C)C=C2 (stereo not drawn) [8b, Depentyl-α,α-dimethylheptyl-cannabichromene]
IC50 ([1]; IC50 TRPM8, antagonist): > 100 µM
IC50 TRPM8 ([1]; antagonist): totally inactive
IC50 [2]: > 50 µM
EC50 [2]: > 50 µM
TRPV3 Efficacy (% IM 4 μM) [2]: 41.6 ± 1.8%
IC50 [3]: > 100 µM
TRPV4 Efficacy (% IM 4 μM) ([3]; HEK-293): < 10%

CCCCCCC(C)(C)c1cc(O)c(C/C=C(\C)CCC=C(C)C)c(O)c1 [7b, Depentyl-α,α-dimethylheptyl-cannabigerol]
IC50 ([1]; IC50 TRPM8, antagonist): 9.2 ± 0.8 µM
IC50 [2]: 35.4 ± 3.6 µM
EC50 [2]: 39.7 ± 0.03 µM
TRPV3 Efficacy (% IM 4 μM) [2]: 64.6 ± 4.8%
IC50 [3, 5]: 35.4 ± 3.2 µM
EC50 ([3]; half-maximal increase in [Ca2+]i, HEK-293, read-out: TRPV4 Potency EC50): 39 ± 21.6 µM
TRPV4 Efficacy (% IM 4 μM) ([3]; HEK-293): 34.4 ± 5.2%
